Measurements taken from patent EP3960174B1 (priority 2020, dated 2022).

The molecules below were run against T1, AChE (Homo sapiens, UniProt P22303) (assay: biochemical).
T1 construct: purchased Sigma Aldrich, Taufkirchen, D
T1 sequence (P22303 32-614): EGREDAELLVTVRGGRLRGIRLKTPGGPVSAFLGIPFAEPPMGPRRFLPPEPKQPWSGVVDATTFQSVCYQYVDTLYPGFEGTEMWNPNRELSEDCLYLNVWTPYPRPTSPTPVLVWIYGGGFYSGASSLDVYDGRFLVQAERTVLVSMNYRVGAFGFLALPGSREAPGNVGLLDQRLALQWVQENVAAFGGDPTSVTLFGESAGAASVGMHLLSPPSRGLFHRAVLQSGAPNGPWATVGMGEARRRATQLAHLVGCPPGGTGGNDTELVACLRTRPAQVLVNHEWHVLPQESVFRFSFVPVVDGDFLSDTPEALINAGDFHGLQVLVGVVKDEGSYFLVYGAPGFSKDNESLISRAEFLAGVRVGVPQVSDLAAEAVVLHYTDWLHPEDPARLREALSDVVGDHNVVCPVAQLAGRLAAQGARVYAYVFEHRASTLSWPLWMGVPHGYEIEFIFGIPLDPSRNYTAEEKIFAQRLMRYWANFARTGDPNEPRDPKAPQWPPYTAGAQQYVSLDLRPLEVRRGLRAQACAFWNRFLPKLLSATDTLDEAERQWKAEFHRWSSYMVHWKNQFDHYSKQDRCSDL

| SMILES | IC50 |
| --- | --- |
| CC1N=C(CCCCCCCCCCc2cc(O)ccc2OC2OC(CO)C(O)C(O)C2O)CC1O (stereo not drawn) [compound 1, tiliine A] | 231 µM |
| CC1NC(CCCCCCCCCc2cc(O)ccc2OC2OC(CO)C(O)C(O)C2O)CCC1O (stereo not drawn) [compound 2, tiliamine A] | 172 µM |
| CC(=O)OC1CCC(CCCCCCCCCc2cc(O)ccc2O[C@@H]2O[C@H](CO)[C@@H](O)[C@H](O)[C@H]2O)NC1C (stereo partly drawn) [compound 3, acetyl-tiliamine A] | 50% inhibition level was not achieved |
